The source of these data is patent US8114894B2, “Bicyclic compounds and methods of making and using same” (Nanotherapeutics, Inc., priority 2008, dated 2012).

One may read the inhibition as the relative decrease from the control value, in per cent. As usually defined, the Ki is a dissociation constant, usually derived from enzyme kinetics or from competition with a known ligand.

The structures appear in SMILES notation. Structures can show the parent of a compound that is named as a salt.

In this test the target is T1, human 5-HT4e receptor (Homo sapiens, UniProt Q13639).
T1 construct: expressed in transfected cells; host or cells: CHO cells
Put plainly: Binding affinity assay, radioligand [3H]GR 113808 binding in transfected CHO cell membrane homogenates. The following applies: 0.3 nM [3H]GR 113808; for inhibition at 0.3 µM: @ 0.3 uM test compound; for inhibition at 0.3 µM / inhibition at 3 µM: read-out: KI (μM or % inhibition): percent inhibition of the control radioligand specific binding; for inhibition at 3 µM: @ 3 uM test compound; for Ki: human 5-HT4e receptor in transfected CHO cells, read-out: KI (μM or % inhibition). Here is the method: The evaluation of the affinity of compounds for the human 5-HT4e receptor in transfected CHO cells was determined in a radioligand binding assay. Experimental protocol: Cell membrane homogenates (140 μg protein) were incubated for […] at 37° C. with 0.3 nM [3H]GR 113808 in the absence or presence of the test compound in a buffer containing 50 mM Hepes/Tris (pH 7.4) and 1 μM pargyline. Nonspecific binding was determined in the presence of 100 μM 5-HT. Following incubation, the samples were filtered rapidly under vacuum through glass fiber filters (GF/B, Packard) presoaked with 0.3% PEI and rinsed several times with ice-cold 50 mM Tris-HCl using a 96-sample cell harvester (Unifilter, Packard). The filters were dried then counted for radioactivity in a scintillation counter (Topcount, Packard) using a scintillation cocktail (Microscint 0, Packard). The results are expressed as a percent inhibition of the control radioligand specific binding at a certain concentration of the test compound. The test compound can also be assessed at several concentrations to obtain a competition curve from which its IC50 and Ki are calculated.

T1 sequence (Q13639 1-378 isoform Q13639-5): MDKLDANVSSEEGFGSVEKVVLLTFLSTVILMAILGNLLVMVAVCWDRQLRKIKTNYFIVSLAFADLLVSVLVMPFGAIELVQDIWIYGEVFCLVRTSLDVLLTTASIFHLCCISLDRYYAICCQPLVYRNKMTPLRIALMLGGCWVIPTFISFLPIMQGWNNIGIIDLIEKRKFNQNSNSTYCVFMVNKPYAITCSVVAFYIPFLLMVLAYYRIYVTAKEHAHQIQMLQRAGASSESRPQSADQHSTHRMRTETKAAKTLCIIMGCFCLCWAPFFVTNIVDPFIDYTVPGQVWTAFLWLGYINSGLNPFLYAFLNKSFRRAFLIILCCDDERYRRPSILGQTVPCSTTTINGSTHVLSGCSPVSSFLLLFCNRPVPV

With `CC(C)n1cc(C(=O)C(=O)NC2CCN(CCNS(C)(=O)=O)CC2)c2ccccc21` [Example 21, 2-(1-Isopropyl-1H-indol-3-yl)-N-(1-(2-(methylsulfonamido)ethyl)piperidin-4-yl)-2-oxoacetamide TFA salt], the inhibition at 0.3 µM came out at 95% and the inhibition at 3 µM was found to be 101%. `CCCN1CCC(NC(=O)C(=O)c2cn(C(C)C)c3ccccc23)CC1` [Example 14, 2-(1-Isopropyl-1H-indol-3-yl)-2-oxo-N-(1-propylpiperidin-4-yl)acetamide]: the inhibition constant (Ki) was found to be 0.0027 µM. Take `CCN(CC)CCNC(=O)C(=O)c1cn(C(C)C)c2ccccc12` [Example 3, N-(2-(Diethylamino)ethyl)-2-(1-isopropyl-1H-indol-3-yl)-2-oxoacetamide hydrochloride]: the Ki was determined as 0.008 µM. Turning to `CCC1CCN(CCNC(=O)C(=O)c2cn(C(C)C)c3ccccc23)CC1` [Example 23, N-(2-(4-ethylpiperidin-1-yl)ethyl)-2-(1-isopropyl-1H-indol-3-yl)-2-oxoacetamide hydrochloride], the inhibition at 0.3 µM worked out at 99% and the inhibition at 3 µM worked out at 101%.

Consider `CCCCC1CCN(CCNC(=O)C(=O)c2cn(C(C)C)c3ccccc23)CC1` [Example 24, N-(2-(4-Butylpiperidin-1-yl)ethyl)-2-(1-isopropyl-1H-indol-3-yl)-2-oxoacetamide], for which the inhibition at 0.3 µM was 95% and the inhibition at 3 µM came out at 101%. In the case of `CC(C)n1cc(C(=O)C(=O)NCCN2CCCCC2)c2cccnc21` [Example 17, 2-(1-Isopropyl-1H-pyrrolo[2,3-b]pyridin-3-yl)-2-oxo-N-(2-(piperidin-1-yl)ethyl)acetamide], the Ki is 0.022 µM.

For the compound `CC(C)n1cc(C(=O)C(=O)NCCN2CCCCC2)c2ccccc21` [Example 2, 2-(1-Isopropyl-1H-indol-3-yl)-2-oxo-N-(2-(piperidin-1-yl)ethyl)acetamide hydrochloride], the Ki was determined as 0.005 µM. As for `CC(C)n1cc(C(=O)C(=O)NCCCN2CCCCC2)c2ccccc21` [Example 1, 2-(1-Isopropyl-1H-indol-3-yl)-2-oxo-N-(3-(piperidin-1-yl)propyl)acetamide hydrochloride], the Ki is 0.007 µM. In the case of `CC(C)n1cc(C(=O)C(=O)NCCN2CCCCC2)c2cc(Cl)ccc21` [Example 6, 2-(5-Chloro-1-isopropyl-1H-indol-3-yl)-2-oxo-N-(2-(piperidin-1-yl)ethyl)acetamide hydrochloride], the Ki came to 0.047 µM. Take `CC(C)n1cc(C(=O)C(=O)NCCN2CCC(C(F)(F)F)CC2)c2ccccc21` [Example 16, 2-(1-Isopropyl-1H-indol-3-yl)-2-oxo-N-(2-(4-(trifluoromethyl)piperidin-1-yl)ethyl)acetamide]: the Ki was 0.023 µM.

For `CC(C)n1cc(C(=O)C(=O)NCCN2CCCCC2)c2ccc([N+](=O)[O-])cc21` [Example 7, 2-(1-Isopropyl-6-nitro-1H-indol-3-yl)-2-oxo-N-(2-(piperidin-1-yl)ethyl)acetamide hydrochloride], the Ki amounted to 2.7 µM. With `CCC(C)n1cc(C(=O)C(=O)NCCN2CCCCC2)c2ccccc21` (centres unmarked) [Example 5, 2-(1-sec-Butyl-1H-indol-3-yl)-2-oxo-N-(2-(piperidin-1-yl)ethyl)acetamide hydrochloride], the Ki was found to be 0.031 µM. In the case of `COc1ccc2c(c1)c(C(=O)C(=O)NCCN1CCCCC1)cn2C(C)C` [Example 11, 2-(1-Isopropyl-5-methoxy-1H-indol-3-yl)-2-oxo-N-(2-(piperidin-1-yl)ethyl)acetamide], the Ki came to 0.31 µM. For the compound `CC(C)n1cc(C(=O)C(=O)NCCN2CCC(CCO)CC2)c2ccccc21` [Example 22, N-(2-(4-(2-Hydroxyethyl)piperidin-1-yl)ethyl)-2-(1-isopropyl-1H-indol-3-yl)-2-oxoacetamide hydrochloride], the inhibition at 0.3 µM stood at 99% and the inhibition at 3 µM was 101%. For the compound `Cc1ccc2c(c1)c(C(=O)C(=O)NCCN1CCCCC1)cn2C(C)C` [Example 12, 2-(1-isopropyl-5-methyl-1H-indol-3-yl)-2-oxo-N-(2-(piperidin-1-yl)ethyl)acetamide], the Ki came out at 0.071 µM. Consider `CCCC1CCN(CCNC(=O)C(=O)c2cn(C(C)C)c3ccccc23)CC1` [Example 18, 2-(1-Isopropyl-1H-indol-3-yl)-2-oxo-N-(2-(4-propylpiperidin-1-yl)ethyl)acetamide TFA salt], for which the inhibition at 0.3 µM was 99% and the inhibition at 3 µM was 102%. For the compound `CCn1cc(C(=O)C(=O)NCCN2CCCCC2)c2ccccc21` [Example 4, 2-(1-Ethyl-1H-indol-3-yl)-2-oxo-N-(2-(piperidin-1-yl)ethyl)acetamide hydrochloride], the Ki came out at 0.005 µM. With `CC(C)CN1CCC(CNC(=O)C(=O)c2cn(C(C)C)c3ccccc23)CC1` [Example 15, N-((1-Isobutylpiperidin-4-yl)methyl)-2-(1-isopropyl-1H-indol-3-yl)-2-oxoacetamide], the Ki is 0.016 µM.

`CC(C)n1cc(C(=O)C(=O)NC2CCN(CCCO)CC2)c2ccccc21` [Example 13, N-(1-(3-Hydroxypropyl)piperidin-4-yl)-2-(1-isopropyl-1H-indol-3-yl)-2-oxoacetamide]: the Ki stood at 0.0024 µM. Same read-out and setting: for `CCCCN1CCC(NC(=O)C(=O)c2cn(C(C)C)c3ccccc23)CC1` [Example 19, N-(1-Butylpiperidin-4-yl)-2-(1-isopropyl-1H-indol-3-yl)-2-oxoacetamide] the value was 0.0025 µM; for `COCCCN1CCC(NC(=O)C(=O)c2cn(C(C)C)c3ccccc23)CC1` [Example 20, 2-(1-Isopropyl-1H-indol-3-yl)-N-(1-(3-methoxypropyl)piperidin-4-yl)-2-oxoacetamide TFA salt], 0.0069 µM. Same read-out and setting: for `CC(C)n1cc(C(=O)C(=O)NCCN2CCCCC2)c2ccc(N)c(Cl)c21` [Example 9, 2-(6-Amino-7-chloro-1-isopropyl-1H-indol-3-yl)-2-oxo-N-(2-(piperidin-1-yl)ethyl)acetamide hydrochloride] the value was 0.1 µM; for `CC(C)n1cc(C(=O)C(=O)NCCN2CCCCC2)c2ccc(N)cc21` [Example 8, 2-(6-Amino-1-isopropyl-1H-indol-3-yl)-2-oxo-N-(2-(piperidin-1-yl)ethyl)acetamide hydrochloride], 0.75 µM.

On to `CC(C)n1cc(C(=O)C(=O)NCCN2CCCC2)c2ccccc21` [Example 10, 2-(1-Isopropyl-1H-indol-3-yl)-2-oxo-N-(2-(pyrrolidin-1-yl)ethyl)acetamide], for which the Ki is 0.013 µM.
